# Experimental data as given in US11345669B2, “Urea derivatives and methods of use thereof” (NodThera Limited, priority 2017, dated 2022).
# Tested on: IL1-β release upon NLRP3 activation in peripheral blood mononuclear cells (PBMC)
# Assay: PBMC IC50 Determination Assay
# Type: cell-based
# Conditions: Homo sapiens, PBMC, read-out: PBMCs, IC50, μM
# Method: PBMC IC50 Determination Assay
# The compounds of the present disclosure were tested for their inhibitory activity against IL1-β release upon NLRP3 activation in peripheral blood mononuclear cells (PBMC).
# Isolated cells were seeded into the wells of a 96-well plate and incubated for 3 h with lipopolysaccharide (LPS). Following medium exchange, the compounds of the present disclosure were added (a single compound per well) and the cells were incubated for 30 min. Next, the cells were stimulated either with ATP (5 mM) or nigericin (10 μM) for 1 h and the cell culture media from the wells were collected for further analysis.
# The release of IL-1β into the media was determined by a quantitative detection of IL-1β in 5 the media using an IL-1β enzyme-linked immunosorbent assay (ELISA) Ready-SET-Go!, eBioscience cat. […] Subsequently, plates were blocked with blocking buffer for 1 h at room temperature (rt) and after washing with a buffer (PBS with 0.05% Tween-20) incubated with protein standard and culture media. […] Plates were washed and incubated with HRP-streptavidin for 30 min at rt and washed again. The signal was developed after addition of 3,39,S,59-tetramethylbenzidine-peroxidase (TMB) until color appeared and the reaction was stopped by 2 M H2SO4. A microplate spectrophotometer (BioTek) was used to detect signals with 450 nm. The detection range of IL-1β ELISA was […].
row,SMILES,IC50
1,"COC(=O)C(Cc1cnn(C)c1)NC(=O)Nc1c2c(cc3c1CCC3)CCC2 (stereo not shown) [Example 2Q, Methyl 2-{[(1,2,3,5,6,7-hexahydro-s-indacen-4-yl)carbamoyl]amino}-3-(1-methyl-1H-pyrazol-4-yl)propanoate]",2.4 µM
2,"COC(=O)CC[C@@H](NC(=O)Nc1c2c(cc3c1CCC3)CCC2)C(=O)OC [Example 2S, 1,5-dimethyl(2R)-2-{[(1,2,3,5,6,7-hexahydro-s-indacen-4-yl)carbamoyl]amino}pentanedioate]",3.5 µM

# Same assay, conditions: Homo sapiens; PBMC from buffy coats, LPS 3 h, compound 30 min, then ATP (5 mM) or nigericin (10 μM) for 1 h; IL-1β in media by ELISA; read-out: PBMCs, IC50
row,SMILES,IC50
1,"COC(=O)[C@@H](Cc1cncc(OC)c1)NC(=O)Nc1c2c(cc3c1CCC3)CCC2 [Example 2WW, Methyl (2R)-2-{[(1,2,3,5,6,7-hexahydro-s-indacen-4-yl)carbamoyl]amino}-3-(5-methoxypyridin-3-yl)propanoate]",0.45 µM
2,"COC(=O)[C@@H](Cc1ccc(C#N)cc1)NC(=O)Nc1c2c(cc3c1CCC3)CCC2 [Example 2D, Methyl (2R)-3-(4-cyanophenyl)-2-{[(1,2,3,5,6,7-hexahydro-s-indacen-4-yl)carbamoyl]amino}propanoate]",1.4 µM
3,"COC(=O)[C@@H](CC(N)=O)NC(=O)Nc1c2c(cc3c1CCC3)CCC2 [Example 2BB, methyl(2R)-3-carbamoyl-2-{[(1,2,3,5,6,7-hexahydro-s-indacen-4yl)carbamoyl]amino}propanoate]",32 µM
4,"COC(=O)[C@@H](Cc1cccc(O)c1)NC(=O)Nc1c2c(cc3c1CCC3)CCC2 [Example 2K, Methyl(2R)-2-{[(1,2,3,5,6,7-hexahydro-s-indacen-4-yl)carbamoyl]amino}-3-(3-hydroxyphenyl)propanoate]",1.3 µM
5,"COC(=O)[C@@H](Cc1ccccn1)NC(=O)Nc1c2c(cc3c1CCC3)CCC2 [Example 2F, Methyl (2R)-2-{[(1,2,3,5,6,7-hexahydro-s-indacen-4-yl)carbamoyl]amino}-3-(pyridin-2-yl)propanoate]",4.2 µM
6,"COC(=O)[C@@H](Cc1cccc(N)c1)NC(=O)Nc1c2c(cc3c1CCC3)CCC2 [Example 2HH, methyl(2R)-3-(3-aminophenyl)-2-{[(1,2,3,5,6,7-hexahydro-s-indacen-4yl)carbamoyl]amino}propanoate]",4.4 µM
7,"COC(=O)C[C@@H](NC(=O)Nc1c2c(cc3c1CCC3)CCC2)C(=O)OC [Example 2W, 1,4-dimethyl(2R)-2-{[(1,2,3,5,6,7-hexahydro-s-indacen-4-yl)carbamoyl]amino}butanedioate]",2.9 µM
8,"COC(=O)C(Cc1cccc(-c2cc[nH]n2)c1)NC(=O)Nc1c2c(cc3c1CCC3)CCC2 (stereo not shown) [Example 2J, Methyl 2-{[(1,2,3,5,6,7-hexahydro-s-indacen-4-yl)carbamoyl]amino}-3-[3-(1H-pyrazol-5-yl)phenyl]propanoate]",0.41 µM
9,"CCOC(=O)[C@@H](Cc1cccnc1)NC(=O)Nc1c(C(C)C)cccc1C(C)C [Example 2UU, Ethyl (2R)-2-({[2,6-bis(propan-2-yl)phenyl]carbamoyl}amino)-3-(pyridin-3-yl)propanoate]",21 µM
10,"O=C(Nc1c2c(cc3c1CCC3)CCC2)N[C@H](Cc1cccc(-c2cc[nH]n2)c1)C(=O)O [Example 2V, (2R)-2-{[(1,2,3,5,6,7-hexahydro-s-indacen-4-yl)carbamoyl]amino}-3-[3-(1H-pyrazol-3-yl)phenyl]propanoic acid]",0.52 µM
11,"COC(=O)C(Cn1ccnc1)NC(=O)Nc1c2c(cc3c1CCC3)CCC2 (stereo not shown) [Example 2DD, methyl 2-{[(1,2,3,5,6,7-hexahydro-s-indacen-4-yl)carbamoyl]amino}-3-(1H-imidazol-1-yl)propanoate]",6.2 µM
12,"COC(=O)[C@@H](Cc1cccnn1)NC(=O)Nc1c2c(cc3c1CCC3)CCC2 [Example 2YY, Methyl (2R)-2-{[(1,2,3,5,6,7-hexahydro-s-indacen-4-yl)carbamoyl]amino}-3-(pyridazin-3-yl)propanoate]",3.3 µM
13,"COC(=O)[C@@H](Cc1cccc(Nc2cc[nH]n2)c1)NC(=O)Nc1c2c(cc3c1CCC3)CCC2 [Example 2U, Methyl(2R)-2-{[(1,2,3,5,6,7-hexahydro-s-indacen-4-yl)carbamoyl]amino}-3-{3-[(1H-pyrazol-3-yl)amino]phenyl}propanoate]",0.31 µM
14,"COC(=O)[C@@H](CO)NC(=O)Nc1c2c(cc3c1CCC3)CCC2 [Example 2JJ, methyl(2R)-2-{[(1,2,3,5,6,7-hexahydro-s-indacen-4-yl)carbamoyl]amino}-3-hydroxypropanoate]",26 µM
15,"COC(=O)[C@@H](Cc1cccc(-c2cc[nH]n2)c1)NC(=O)Nc1c2c(cc3c1CCC3)CCC2 [Example 2L, Methyl (2R)-2-{[(1,2,3,5,6,7-hexahydro-s-indacen-4-yl)carbamoyl]amino}-3-[3-(1H-pyrazol-3-yl)phenyl]propanoate]",0.14 µM
16,"O=C(Nc1c2c(cc3c1CCC3)CCC2)N[C@H](Cc1ccccc1)C(=O)O [Example 2SS, (2R)-2-{[(1,2,3,5,6,7-hexahydro-s-indacen-4-yl)carbamoyl]amino}-3-phenylpropanoic acid]",14 µM

row,SMILES,IC50
1,"CCOC(=O)C(Cc1ccon1)NC(=O)Nc1c2c(cc3c1CCC3)CCC2 (stereo not shown) [Example 2AB, Ethyl 2-{[(1,2,3,5,6,7-hexahydro-s-indacen-4-yl)carbamoyl]amino}-3-(1,2-oxazol-3-yl)propanoate]",1.8 µM
2,"CC(C)OC(=O)CNC(=O)Nc1c2c(cc3c1CCC3)CCC2 [Example 2AA, propan-2-yl 2-{[(1,2,3,5,6,7-hexahydro-s-indacen-4-yl)carbamoyl]amino}acetate]",1.8 µM
3,"COC(=O)[C@@H](Cc1cncnc1)NC(=O)Nc1c2c(cc3c1CCC3)CCC2 [Example 2AE, Methyl (2R)-2-{[(1,2,3,5,6,7-hexahydro-s-indacen-4-yl)carbamoyl]amino}-3-(pyrimidin-5-yl)propanoate]",4.5 µM
4,"O=C(Nc1c2c(cc3c1CCC3)CCC2)N[C@H](Cc1cccnc1)C(=O)OCC1CC1 [Example 2OO, cyclopropylmethyl(2R)-2-{[(1,2,3,5,6,7-hexahydro-s-indacen-4-yl)carbamoyl]amino}-3-(pyridin-3-yl)propanoate]",0.47 µM
5,"COC(=O)C(Cc1cccc(O)c1)NC(=O)Nc1c2c(cc3c1CCC3)CCC2 (stereo not shown) [Example 2A, Methyl2-{[(1,2,3,5,6,7-hexahydro-s-indacen-4-yl)carbamoyl]amino}-3-(3-hydroxyphenyl)propanoate]",2.5 µM
6,"O=C(Nc1c2c(cc3c1CCC3)CCC2)NC(Cc1ncccn1)C(=O)O (stereo not shown) [Example 2AJ, 2-{[(1,2,3,5,6,7-hexahydro-s-indacen-4-yl)carbamoyl]amino}-3-(pyrimidin-2-yl)propanoic acid]",15 µM
7,"COC(=O)C(Cc1cccc(C(C)=O)c1)NC(=O)Nc1c2c(cc3c1CCC3)CCC2 (stereo not shown) [Example 2C, Methyl 3-(3-acetylphenyl)-2-{[(1,2,3,5,6,7-hexahydro-s-indacen-4-yl)carbamoyl]amino}propanoate]",0.35 µM
8,"COC(=O)C(Cc1cccc(-c2cncn2C)c1)NC(=O)Nc1c2c(cc3c1CCC3)CCC2 (stereo not shown) [Example 2I, Methyl 2-{[(1,2,3,5,6,7-hexahydro-s-indacen-4-yl)carbamoyl]amino}-3-[3-(1-methyl-1H-imidazol-5-yl)phenyl]propanoate]",0.96 µM
9,"COC(=O)[C@@H](CN)NC(=O)Nc1c2c(cc3c1CCC3)CCC2 [Example 2N, Methyl(2R)-3-amino-2-{[(1,2,3,5,6,7-hexahydro-s-indacen-4-yl)carbamoyl]amino}propanoate]",9.3 µM
10,"COC[C@@H](NC(=O)Nc1c2c(cc3c1CCC3)CCC2)C(=O)OC [Example 2II, methyl(2R)-2-{[(1,2,3,5,6,7-hexahydro-s-indacen-4-yl)carbamoyl]amino}-3-methoxypropanoate]",5.3 µM
11,"CCOC(=O)C(Cc1ncco1)NC(=O)Nc1c2c(cc3c1CCC3)CCC2 (stereo not shown) [Example 2AC, Ethyl 2-{[(1,2,3,5,6,7-hexahydro-s-indacen-4-yl)carbamoyl]amino}-3-(1,3-oxazol-2-yl)propanoate]",0.67 µM
12,"COC(=O)[C@@H](CC#N)NC(=O)Nc1c2c(cc3c1CCC3)CCC2 [Example 2QQ, methyl(2R)-3-cyano-2-{[(1,2,3,5,6,7-hexahydro-s-indacen-4yl)carbamoyl]amino}propanoate]",< 10 µM
13,"CCOC(=O)[C@@H](Cc1cccnc1)NC(=O)Nc1cc2c(cc1C(C)C)CCC2 [Example 2AD, Ethyl (2R)-2-({[6-(propan-2-yl)-2,3-dihydro-1H-inden-5-yl]carbamoyl}amino)-3-(pyridin-3-yl)propanoate]",2.9 µM
14,"O=C(Nc1c2c(cc3c1CCC3)CCC2)N[C@H](Cc1cccnc1)C(=O)O [Example 2LL, (2R)-2-{[(1,2,3,5,6,7-hexahydro-s-indacen-4-yl)carbamoyl]amino}-3-(pyridin-3-yl)propanoic acid]",2 µM
15,"COCCOC(=O)[C@@H](Cc1cccnc1)NC(=O)Nc1c2c(cc3c1CCC3)CCC2 [Example 2MM, 2-methoxyethyl(2R)-2-{[(1,2,3,5,6,7-hexahydro-s-indacen-4-yl)carbamoyl]amino}-3-(pyridin-3-yl)propanoate]",2.9 µM
16,"COC(=O)C(Cc1ccccc1O)NC(=O)Nc1c2c(cc3c1CCC3)CCC2 (stereo not shown) [Example 2B, Methyl2-{[(1,2,3,5,6,7-hexahydro-s-indacen-4-yl)carbamoyl]amino}-3-(2-hydroxyphenyl)propanoate]",0.06 µM
